According to patent US6914045B2, “Glycopeptide antibiotics” (Wyeth Holdings Corporation, priority 2001, dated 2005):
Values after ≈ are worked out from the molar mass of the structure shown.

Assays:
Enterococcus sp. = experiment: in vitro antibacterial evaluation, MIC by broth dilution; type: cell-based; details: broth dilution, 18 hours at 35° C.; for MIC Enterococcus faecalis (ATCC 29212): strain ATCC 29212; for MIC Enterococcus faecium (GC 2243): strain GC 2243; for MIC Enterococcus faecalis (GC 4552): strain GC 4552; for MIC Enterococcus faecalis (GC 4553): strain GC 4553; for MIC Enterococcus faecalis (GC 4554): strain GC 4554; for MIC Enterococcus faecium (GC 4556): strain GC 4556; for MIC Enterococcus faecium (GC 4557): strain GC 4557; for MIC Enterococcus avium (GC 4558): strain GC 4558; for MIC Enterococcus faecalis (GC 6189): strain GC 6189
Summary of the method: (§1)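 Inoculum 5×10^5 CFU/mL; concentrations 64 to 0.06 μg/mL; MIC defined as lowest inhibitory level. Conducted by broth dilution under NCCLS guidelines.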

Escherichia coli = experiment: as above; type: cell-based
Summary of the method: as §1

Staphylococcus sp. = experiment: as above; type: cell-based; details: broth dilution, 18 hours at 35° C.; for MIC Staphylococcus aureus (GC 1131): strain GC 1131
Summary of the method: as §1

Streptococcus sp. = experiment: as above; type: cell-based; details: broth dilution, 18 hours at 35° C.
Summary of the method: as §1

[1] = tested on: Staphylococcus aureus-SMITH (GC 4543); experiment: acute lethal infection in mice; type: in vivo; details: acute lethal infection, female CD-1 mice, intraperitoneal challenge, intravenous 30 min. after infection, 7 day survival
Summary of the method: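 Intraperitoneal challenge of female CD-1 mice with a bacterial dose lethal to untreated animals within 24-48 hr; single iv treatment 30 min later, 5 mice per dose level. Survival is scored at day 7 and pooled from three experiments to give the median effective dose.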

For `CC(c1ccccc1)C1NC(=O)CNC(=O)C(CO)NC(=O)C(C(O)C2CNC(=N)N2C2OC(CO)C(O)C(O)C2O)NC(=O)C(C(O)C2CNC(=N)N2)NC(=O)C(Cc2ccc(OC3OC(CO)C(OC4OC5COC(c6cc7c(cc6Cl)OCO7)OC5C(O)C4O)C(O)C3O)cc2)NC1=O` (stereo not drawn) [Example 158, Cyclo[glycyl-β-methylphenylalanyl-O-[4-O-[4,6-O-[(6-chloro-1,3-benzodioxol-5-yl)-methylene]hexopyranosyl]hexopyranosyl]tyrosyl-3-(2-iminoimidazolidin-4-yl)seryl-3-(3-hexopyranosyl-2-iminoimidazolidin-4-yl)serylseryl]], the “MIC Enterococcus faecalis (GC 2242)” value (Enterococcus sp.; Enterococcus faecalis (GC 2242)) was 4 µg/mL (≈ 2.74 µM), the “MIC Enterococcus faecalis (GC 2691)” value (Enterococcus sp.; Enterococcus faecalis (GC 2691)) was 4 µg/mL (≈ 2.74 µM) and the “MIC Enterococcus faecalis (GC 3059)” value (Enterococcus sp.; Enterococcus faecalis (GC 3059)) was 4 µg/mL (≈ 2.74 µM). The “MIC Enterococcus faecalis (ATCC 29212)” value (Enterococcus sp.; inoculum 5×10^5 CFU/mL) was 4 µg/mL (≈ 2.74 µM), the “MIC Enterococcus faecium (GC 2243)” value (Enterococcus sp.; inoculum 5×10^5 CFU/mL) was 4 µg/mL (≈ 2.74 µM) and the “MIC Enterococcus faecalis (GC 4552)” value (Enterococcus sp.; inoculum 5×10^5 CFU/mL) was 8 µg/mL (≈ 5.47 µM). The “MIC Enterococcus faecalis (GC 4553)” value (Enterococcus sp.; inoculum 5×10^5 CFU/mL) was 4 µg/mL (≈ 2.74 µM), the “MIC Enterococcus faecalis (GC 4554)” value (Enterococcus sp.; inoculum 5×10^5 CFU/mL) was 4 µg/mL (≈ 2.74 µM) and the “MIC Enterococcus faecium (GC 4556)” value (Enterococcus sp.; inoculum 5×10^5 CFU/mL) was 8 µg/mL (≈ 5.47 µM). For the same molecule, the “MIC Enterococcus faecium (GC 4557)” value (Enterococcus sp.; inoculum 5×10^5 CFU/mL) was 2 µg/mL (≈ 1.37 µM), the “MIC Enterococcus avium (GC 4558)” value (Enterococcus sp.; inoculum 5×10^5 CFU/mL) was 4 µg/mL (≈ 2.74 µM) and the “MIC Enterococcus faecalis (GC 6189)” value (Enterococcus sp.; inoculum 5×10^5 CFU/mL) was 4 µg/mL (≈ 2.74 µM). For the same molecule, the “MIC Enterococcus faecalis (ATCC 29212)” value (Enterococcus sp.) was 4 µg/mL (≈ 2.74 µM), the “MIC Enterococcus faecalis (GC 2242)” value (Enterococcus sp.; strain GC 2242) was 4 µg/mL (≈ 2.74 µM) and the “MIC Enterococcus faecium (GC 2243)” value (Enterococcus sp.) was 4 µg/mL (≈ 2.74 µM). The “MIC Enterococcus faecalis (GC 2691)” value (Enterococcus sp.; strain GC 2691) was 4 µg/mL (≈ 2.74 µM), the “MIC Enterococcus faecalis (GC 3059)” value (Enterococcus sp.; strain GC 3059) was 4 µg/mL (≈ 2.74 µM) and the “MIC Enterococcus faecalis (GC 4552)” value (Enterococcus sp.) was 8 µg/mL (≈ 5.47 µM). For the same molecule, the “MIC Enterococcus faecalis (GC 4553)” value (Enterococcus sp.) was 4 µg/mL (≈ 2.74 µM), the “MIC Enterococcus faecalis (GC 4554)” value (Enterococcus sp.) was 4 µg/mL (≈ 2.74 µM) and the “MIC Enterococcus faecium (GC 4556)” value (Enterococcus sp.) was 8 µg/mL (≈ 5.47 µM). For the same molecule, the “MIC Enterococcus faecium (GC 4557)” value (Enterococcus sp.) was 2 µg/mL (≈ 1.37 µM), the “MIC Enterococcus avium (GC 4558)” value (Enterococcus sp.) was 4 µg/mL (≈ 2.74 µM) and the “MIC Enterococcus faecalis (GC 6189)” value (Enterococcus sp.) was 4 µg/mL (≈ 2.74 µM). The “MIC Escherichia coli (ATCC 25922)” value (Escherichia coli; strain ATCC 25922, 18 hours at 35° C.) was 64 µg/mL (≈ 43.8 µM), the “MIC Escherichia coli (GC 4559)” value (Escherichia coli; strain GC 4559, 18 hours at 35° C.) was 64 µg/mL (≈ 43.8 µM) and the “MIC Escherichia coli (GC 4560)” value (Escherichia coli; strain GC 4560, 18 hours at 35° C.) was 1 µg/mL (≈ 0.684 µM). The “MIC Staphylococcus aureus (GC 1131)” value (Staphylococcus sp.; inoculum 5×10^5 CFU/mL) was 2 µg/mL (≈ 1.37 µM), the “MIC Staphylococcus aureus (ATCC 29213)” value (Staphylococcus sp.; strain ATCC 29213) was 2 µg/mL (≈ 1.37 µM) and the “MIC Staphylococcus aureus (GC 1131)” value (Staphylococcus sp.) was 2 µg/mL (≈ 1.37 µM). The “MIC Staphylococcus aureus (GC 3051)” value (Staphylococcus sp.; strain GC 3051) was 1 µg/mL (≈ 0.684 µM), the “MIC Staphylococcus aureus (GC 3053)” value (Staphylococcus sp.; strain GC 3053) was 2 µg/mL (≈ 1.37 µM) and the “MIC Staphylococcus aureus (GC 4541)” value (Staphylococcus sp.; strain GC 4541) was 1 µg/mL (≈ 0.684 µM). For the same molecule, the “MIC Staphylococcus aureus (GC 4542)” value (Staphylococcus sp.; strain GC 4542) was 1 µg/mL (≈ 0.684 µM), the “MIC Staphylococcus aureus-SMITH (GC 4543)” value (Staphylococcus sp.; strain GC 4543) was 2 µg/mL (≈ 1.37 µM) and the “MIC Staphylococcus aureus (GC 4544)” value (Staphylococcus sp.; strain GC 4544) was 2 µg/mL (≈ 1.37 µM). For the same molecule, the “MIC Staphylococcus aureus (GC 4545)” value (Staphylococcus sp.; strain GC 4545) was 2 µg/mL (≈ 1.37 µM), the “MIC Staphylococcus haemolyticus (GC 4546)” value (Staphylococcus sp.; strain GC 4546) was 0.5 µg/mL (≈ 0.342 µM) and the “MIC Coagulase Negative Staphylococcus (GC 4547)” value (Staphylococcus sp.; strain GC 4547) was 2 µg/mL (≈ 1.37 µM). The “MIC Coagulase Negative Staphylococcus (GC 4548)” value (Staphylococcus sp.; strain GC 4548) was 1 µg/mL (≈ 0.684 µM), the “MIC Coagulase Negative Staphylococcus (GC 4549)” value (Staphylococcus sp.; strain GC 4549) was 1 µg/mL (≈ 0.684 µM) and the “MIC Coagulase Negative Staphylococcus (GC 4551)” value (Staphylococcus sp.; strain GC 4551) was 2 µg/mL (≈ 1.37 µM). The “MIC Coagulase Negative Staphylococcus (GC 6257)” value (Staphylococcus sp.; strain GC 6257) was 1 µg/mL (≈ 0.684 µM), the “MIC Staphylococcus aureus-SMITH (GC 4543)” value (Staphylococcus sp.; strain SMITH GC 4543) was 2 µg/mL (≈ 1.37 µM) and the “MIC Streptococcus agalactiae (GC 4564)” value (Streptococcus sp.; Streptococcus agalactiae (GC 4564)) was 0.25 µg/mL (≈ 0.171 µM). The “MIC Streptococcus pneumoniae (ATCC 6301)” value (Streptococcus sp.; Streptococcus pneumoniae (ATCC 6301)) was 0.12 µg/mL (≈ 0.0821 µM), the “MIC Streptococcus pneumoniae (GC 1894)” value (Streptococcus sp.; Streptococcus pneumoniae (GC 1894)) was <0.06 µg/mL and the “MIC Streptococcus pneumoniae (GC 4565)” value (Streptococcus sp.; Streptococcus pneumoniae (GC 4565)) was <0.06 µg/mL. The “MIC Streptococcus pyogenes (GC 4563)” value (Streptococcus sp.; Streptococcus pyogenes (GC 4563)) was 0.25 µg/mL (≈ 0.171 µM), the “MIC Streptococcus pneumoniae (ATCC 6301)” value (Streptococcus sp.; strain ATCC 6301) was 0.12 µg/mL (≈ 0.0821 µM) and the “MIC Streptococcus pneumoniae (GC 1894)” value (Streptococcus sp.; strain GC 1894) was <0.06 µg/mL. The “MIC Streptococcus pyogenes (GC 4563)” value (Streptococcus sp.; strain GC 4563) was 0.25 µg/mL (≈ 0.171 µM), the “MIC Streptococcus agalactiae (GC 4564)” value (Streptococcus sp.; strain GC 4564) was 0.25 µg/mL (≈ 0.171 µM) and the “MIC Streptococcus pneumoniae (GC 4565)” value (Streptococcus sp.; strain GC 4565) was <0.06 µg/mL. It also gave a median effective dose (ED50), Staphylococcus aureus-SMITH (GC 4543) [1] of 0.14 mg/kg.
